Experimental findings from patent publication US7205302B2, “Heterocyclic compound derivatives and medicines” (Nippon Shinyaku Co., Ltd., priority 2001, dated 2007) are described below.

pIC50: −log10 of the molar value. Where a name gives a salt, the structure may show the parent alone.

One data set deals with mice. The experiment in a line: Single-dose toxicity test in mice. It counts as in vivo. The settings on record: oral, 10, 30 or 100 mg/kg. How it is done: Singl-Dose Toxicity Test in Mice
The compound of Example 42 was orally administered to mice (including three mice in a group) at a dose of 10, 30 or 100 mg/kg.

Data set [1] concerns ADP-induced platelet aggregation in human PRP. As to the kind of experiment: Human platelet aggregation inhibition test. The settings on record: ADP 1×10^−5 M. It counts as cell-based. The method, then: Human Platelet Aggregation Inhibition Test
Blood collected from healthy human volunteers into aqueous trisodium citrate solution was centrifuged at 200×g for 10 minutes and the upper layer was recovered to obtain platelet-rich plasma (PRP). The residual blood containing trisodium citrate added therein was centrifuged at 1500×g for 10 minutes and the supernatant was collected as platelet-poor plasma (PPP). The number of platelets in the PRP was adjusted to about 300,000/μl by PPP. Platelet aggregation was measured by an aggregometer. 180 μl of PRP was added to cuvettes and incubated at 37° C. for one minute, and then 10 μl of test compound solution (prepared by dissolving a test compound with a 1.5-fold mole of a sodium hydroxide solution and diluting with water) was added and the mixture was further incubated for 2 minutes. Then, 10 μl of aqueous adenosine diphosphate (ADP) solution was added to adjust the final concentration as 1×10^−5 M and platelet aggregation was induced and observed for 7 minutes. Inhibition percentage of aggregation was calculated from the percentage of aggregation upon the addition of the test compound to the percentage of aggregation upon the addition of water in place of the test compound solution (control).

The target of data set [2] is T1, PGI2 receptor (human platelet membrane, 3H-Iloprost binding) (Homo sapiens, UniProt P43119).
T1 construct: Human platelet membrane of 100 μg protein was suspended; from tissue; host or cells: human platelet membrane
T1 sequence (P43119 whole entry): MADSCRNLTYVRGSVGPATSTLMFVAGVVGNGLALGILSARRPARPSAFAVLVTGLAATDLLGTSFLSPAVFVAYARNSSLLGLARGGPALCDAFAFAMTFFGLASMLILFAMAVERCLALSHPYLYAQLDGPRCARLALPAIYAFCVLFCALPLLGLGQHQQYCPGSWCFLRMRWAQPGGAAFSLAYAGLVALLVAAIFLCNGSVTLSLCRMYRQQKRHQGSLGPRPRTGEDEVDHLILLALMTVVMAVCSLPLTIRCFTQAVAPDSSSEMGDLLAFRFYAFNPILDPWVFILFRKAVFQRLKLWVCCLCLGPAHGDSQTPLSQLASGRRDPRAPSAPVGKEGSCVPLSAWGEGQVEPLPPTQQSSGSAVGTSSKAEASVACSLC
The experiment in a line: 3H-Iloprost binding inhibition test to human platelet membrane. As to conditions: compound 1 μM, 5 nM 3H-Iloprost, 37° C., 10 minutes. How it is done: ^3H-Iloprost Binding Inhibition Test to Human Platelet Membrane
The platelet membrane was collected on a glass filter and its radioactivity was measured after washing four times with 50 mM Tris-HCl buffer.

The term pIC50 denotes the negative decadic logarithm of the IC50, by convention in mol/L. For `CC(C)N(CCCCOCC(=O)O)c1cnc(-c2ccccc2)c(-c2ccccc2)n1` [Example 42, 2-{4-[N-(5,6-diphenylpyrazin-2-yl)-N-isopropylamino]butyloxy}acetic acid], in the data set on mice, the “deaths after single oral dose” value was “no deaths”. Also, the pIC50 in data set [1] is 6.70.
Take `CN(CCCCOCC(=O)O)c1ccc(-c2ccccc2)c(-c2ccccc2)n1` [Example 46, 2-{4-[N-(5,6-diphenylpyridin-2-yl)-N-methylamino]butyloxy}acetic acid sodium salt]: in data set [1], the pIC50 was 6.30.
As a reminder, the melting point is the temperature of the solid-liquid transition. As to `Cc1ccc(-c2nnc(N(CCCCOCC(=O)O)C(C)C)nc2-c2ccc(C)cc2)cc1` [Example 48, 2-{4-[N-(5,6-di-p-tolyl-1,2,4-triazin-3-yl)-N-isopropylamino]butyloxy}acetic acid], the melting point fell in the range of 119 to 121 °C. The pIC50 in data set [1] is 6.40.
As to `CN(CCCCOCC(=O)O)c1cnc(-c2ccccc2)c(-c2ccccc2)n1` [Example 64, 2-{4-[N-(5,6-diphenylpyrazin-2-yl)-N-methylamino]butyloxy}acetic acid], in data set [2], the “inhibition of binding of 3H-Iloprost” value was 85%.
`CN(CCCCOCC(=O)O)c1c[n+]([O-])c(-c2ccccc2)c(-c2ccccc2)n1` [Example 73, 2,3-diphenyl-5-{N-[4-(carboxymethoxy)butyl]-N-methylamino}pyrazine 1-oxide] registered a melting point of 185 to 190 °C. The same compound showed a pIC50 in data set [1] of 6.70.
In turn, `CN(CCCCOCC(=O)O)c1ncc(-c2ccccc2)c(-c2ccccc2)n1` [Example 74, 2-{4-[N-(4,5-diphenylpyrimidin-2-yl)-N-methylamino]butyloxy}acetic acid] had a pIC50 in data set [1] of 6.10.
Still for that read-out and setting: in the case of `Cc1ccc(-c2cnc(N(C)CCCCOCC(=O)O)nc2-c2ccc(C)cc2)cc1` [Example 75, 2-{4-[N-(4,5-di-p-tolylpyrimidin-2-yl)-N-methylamino]butyloxy}acetic acid] it was 6.70; in that of `CC(C)N(CCCCSCC(=O)O)c1cnc(-c2ccccc2)c(-c2ccccc2)n1` [Example 78, 2-{4-[N-(5,6-diphenylpyrazin-2-yl)-N-isopropylamino]butylthio]acetic acid sodium salt], 6.52.
